As usually defined, the inhibition is the change of the read-out against control, counted positive when it falls.

We go through 22 molecules from patent US8686150B2 (Sanofi, priority 2011, dated 2014).

This assay addresses T1, human full-length recombinant PKC βII (Homo sapiens, UniProt P05771).
T1 construct: Active human full-length recombinant PKC βII; purchased Invitrogen GmbH, Darmstadt, Germany
The experiment in a line: Determination of PKC βII inhibition (Caliper mobility-shift kinase assay, Fluorescein-RFARKGSLRQKNV peptide substrate). It is filed as biochemical. To be noted: example compounds at a final concentration of 1.14 μM (±0.15 μM). The essentials:
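Full-length PKC βII (30 ng/ml in pre-dilution) with PS/DAG/Ca2+ activators, pH 7.4; fluorescein peptide and ATP at 3 μM and 120 μM before mixing. Reaction ran 60 min at 32 °C, was EDTA-stopped, and was read by mobility shift. % inhibition came from product/(substrate+product) peak heights, tested at 1.14 μM final.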

The structures appear in SMILES notation.

T1 sequence (P05771 1-673 isoform P05771-2): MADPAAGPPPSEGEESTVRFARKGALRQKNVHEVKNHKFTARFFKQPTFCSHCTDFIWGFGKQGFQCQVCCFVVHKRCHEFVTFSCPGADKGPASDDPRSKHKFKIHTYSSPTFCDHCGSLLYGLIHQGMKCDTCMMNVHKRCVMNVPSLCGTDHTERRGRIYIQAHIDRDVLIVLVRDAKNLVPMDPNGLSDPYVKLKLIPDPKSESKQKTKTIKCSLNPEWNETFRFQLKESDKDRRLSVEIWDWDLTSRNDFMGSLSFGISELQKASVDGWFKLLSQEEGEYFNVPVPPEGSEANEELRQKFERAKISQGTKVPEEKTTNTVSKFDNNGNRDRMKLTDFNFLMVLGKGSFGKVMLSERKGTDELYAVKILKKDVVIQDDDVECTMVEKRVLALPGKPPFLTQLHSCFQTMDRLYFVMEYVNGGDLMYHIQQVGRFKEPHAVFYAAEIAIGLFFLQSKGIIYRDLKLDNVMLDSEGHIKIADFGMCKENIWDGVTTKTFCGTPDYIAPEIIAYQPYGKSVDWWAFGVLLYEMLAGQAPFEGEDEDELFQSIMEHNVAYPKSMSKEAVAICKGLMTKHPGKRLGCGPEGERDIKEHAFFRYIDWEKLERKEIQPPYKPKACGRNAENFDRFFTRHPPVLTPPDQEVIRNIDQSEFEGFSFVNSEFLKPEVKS

Turning to `Cc1n[nH]c2nc(-c3ccc(O)cc3F)cc(C(=O)N3CC(C)NCC3(C)C)c12` (stereo not shown) [Example 434, [6-(2-Fluoro-4-hydroxy-phenyl)-3-methyl-1H-pyrazolo[3,4-b]pyridin-4-yl]-(2,2,5-trimethyl-piperazin-1-yl)-methanone], the inhibition at 1.14 µM worked out at 106%.

On to `Cc1n[nH]c2nc(-c3ccc(O)cc3F)cc(C(=O)N3CCNCC3(C)c3ccccc3)c12` (stereo not shown) [Example 435, [6-(2-Fluoro-4-hydroxy-phenyl)-3-methyl-1H-pyrazolo[3,4-b]pyridin-4-yl]-(2-methyl-2-phenyl-piperazin-1-yl)-methanone], for which the inhibition at 1.14 µM came out at 97%.

On to `CCC1(CC)CNCCN1C(=O)c1cc(-c2ccc(O)cc2F)nc2[nH]nc(C)c12` [Example 436, (2,2-Diethyl-piperazin-1-yl)-[6-(2-fluoro-4-hydroxy-phenyl)-3-methyl-1H-pyrazolo[3,4-b]pyridin-4-yl]-methanone], for which the inhibition at 1.14 µM was found to be 100%.

Take `Cc1n[nH]c2nc(-c3ccc(O)cc3F)cc(C(=O)N3CC(C)(C)NCC34CCCC4)c12` [Example 437, (8,8-Dimethyl-6,9-diaza-spiro[4.5]dec-6-yl)-[6-(2-fluoro-4-hydroxy-phenyl)-3-methyl-1H-pyrazolo[3,4-b]pyridin-4-yl]-methanone]: the inhibition at 1.14 µM was 99%.

As to `Cc1n[nH]c2nc(-c3ccc(O)cc3F)cc(C(=O)N3CC(C)NCC34CCCC4)c12` (stereo not shown) [Example 438, [6-(2-Fluoro-4-hydroxy-phenyl)-3-methyl-1H-pyrazolo[3,4-b]pyridin-4-yl]-(8-methyl-6,9-diaza-spiro[4.5]dec-6-yl)-methanone], the inhibition at 1.14 µM was found to be 98%.

For `Cc1n[nH]c2nc(-c3ccc(O)cc3F)cc(C(=O)N3CCNCC34CCC4)c12` [Example 439, (5,8-Diaza-spiro[3.5]non-5-yl)-[6-(2-fluoro-4-hydroxy-phenyl)-3-methyl-1H-pyrazolo[3,4-b]pyridin-4-yl]-methanone], the inhibition at 1.14 µM came out at 99%.

Take `Cc1n[nH]c2nc(-c3ccc(O)cc3F)cc(C(=O)NC3(c4ccccc4)CCNCC3)c12` [Example 440, 6-(2-Fluoro-4-hydroxy-phenyl)-3-methyl-1H-pyrazolo[3,4-b]pyridine-4-carboxylic acid (4-phenyl-piperidin-4-yl)-amide]: the inhibition at 1.14 µM turned out to be 90%.

`CCCC1CN(C(=O)c2cc(-c3ccc(O)cc3F)nc3[nH]nc(C)c23)C(CCC)CN1` (stereo not shown) [Example 441, (2,5-Dipropyl-piperazin-1-yl)-[6-(2-fluoro-4-hydroxy-phenyl)-3-methyl-1H-pyrazolo[3,4-b]pyridin-4-yl]-methanone]: the inhibition at 1.14 µM came out at 96%.

In the case of `Cc1n[nH]c2nc(-c3ccc(O)cc3F)cc(C(=O)N3CCN[C@H]4CCCC[C@@H]43)c12` [Example 443, [6-(2-Fluoro-4-hydroxy-phenyl)-3-methyl-1H-pyrazolo[3,4-b]pyridin-4-yl]-(4aS,8aS)-octahydro-quinoxalin-1-yl-methanone], the inhibition at 1.14 µM worked out at 97%.

Take `Cc1n[nH]c2nc(-c3ccc(O)cc3F)cc(C(=O)N3C(C)CNCC3C)c12` (stereo not shown) [Example 444, (2,6-Dimethyl-piperazin-1-yl)-[6-(2-fluoro-4-hydroxy-phenyl)-3-methyl-1H-pyrazolo[3,4-b]pyridin-4-yl]-methanone]: the inhibition at 1.14 µM was determined as 99%.

Turning to `CCC1CN(C(=O)c2cc(-c3ccc(O)cc3F)nc3[nH]nc(C)c23)C(CC)CN1` (stereo not shown) [Example 445, (2,5-Diethyl-piperazin-1-yl)-[6-(2-fluoro-4-hydroxy-phenyl)-3-methyl-1H-pyrazolo[3,4-b]pyridin-4-yl]-methanone], the inhibition at 1.14 µM amounted to 99%.

On to `CC[C@@H]1CN(C(=O)c2cc(-c3ccc(O)cc3F)nc3[nH]nc(C)c23)[C@@H](C)CN1` [Example 446, ((2S,5R)-5-Ethyl-2-methyl-piperazin-1-yl)-[6-(2-fluoro-4-hydroxy-phenyl)-3-methyl-1H-pyrazolo[3,4-b]pyridin-4-yl)-methanone], for which the inhibition at 1.14 µM came out at 98%.

As for `CCC[C@@H]1CN(C(=O)c2cc(-c3ccc(O)cc3F)nc3[nH]nc(C)c23)[C@@H](C)CN1` [Example 448, [6-(2-Fluoro-4-hydroxy-phenyl)-3-methyl-1H-pyrazolo[3,4-b]pyridin-4-yl]-((2S,5R)-2-methyl-5-propyl-piperazin-1-yl)-methanone], the inhibition at 1.14 µM turned out to be 99%.

Take `CCC1(C)CNC(C)(C)CN1C(=O)c1cc(-c2ccc(O)cc2F)nc2[nH]nc(C)c12` (stereo not shown) [Example 449, (2-Ethyl-2,5,5-trimethyl-piperazin-1-yl)-[6-(2-fluoro-4-hydroxy-phenyl)-3-methyl-1H-pyrazolo[3,4-b]pyridin-4-yl]-methanone]: the inhibition at 1.14 µM is 99%.

Regarding `CCC1(CC)CNC(C)(C)CN1C(=O)c1cc(-c2ccc(O)cc2F)nc2[nH]nc(C)c12` [Example 450, (2,2-Diethyl-5,5-dimethyl-piperazin-1-yl)-[6-(2-fluoro-4-hydroxy-phenyl)-3-methyl-1H-pyrazolo[3,4-b]pyridin-4-yl]-methanone], the inhibition at 1.14 µM worked out at 100%.

Turning to `Cc1n[nH]c2nc(-c3ccc(O)cc3F)cc(C(=O)N3CC4(CCCC4)NCC3(C)C)c12` [Example 451, (8,8-Dimethyl-6,9-diaza-spiro[4.5]dec-9-yl)-[6-(2-fluoro-4-hydroxy-phenyl)-3-methyl-1H-pyrazolo[3,4-b]pyridin-4-yl]-methanone], the inhibition at 1.14 µM was 104%.

In the case of `Cc1n[nH]c2nc(-c3ccc(O)cc3F)cc(C(=O)N3C[C@@H](C)N(Cc4ccccn4)C[C@@H]3C)c12` [Example 452, ((2S,5R)-2,5-Dimethyl-4-pyridin-2-ylmethyl-piperazin-1-yl)-[6-(2-fluoro-4-hydroxy-phenyl)-3-methyl-1H-pyrazolo[3,4-b]pyridin-4-yl]-methanone], the inhibition at 1.14 µM came out at 83%.

As to `Cc1n[nH]c2nc(-c3ccc(O)cc3F)cc(C(=O)N3C[C@@H](C)N(CC4CCNCC4)C[C@@H]3C)c12` [Example 453, ((2S,5R)-2,5-Dimethyl-4-piperidin-4-ylmethyl-piperazin-1-yl)-[6-(2-fluoro-4-hydroxy-phenyl)-3-methyl-1H-pyrazolo[3,4-b]pyridin-4-yl]-methanone], the inhibition at 1.14 µM came to 90%.

For the molecule `Cc1n[nH]c2nc(-c3ccc(O)cc3F)cc(C(=O)N3C[C@@H](C)N(CC4CCOCC4)C[C@@H]3C)c12` [Example 454, [(2S,5R)-2,5-Dimethyl-4-(tetra-hydro-pyran-4-yl-methyl)-piperazin-1-yl]-[6-(2-fluoro-4-hydroxy-phenyl)-3-methyl-1H-pyrazolo[3,4-b]pyridin-4-yl]-methanone], the inhibition at 1.14 µM turned out to be 81%.

For `Cc1n[nH]c2nc(-c3ccc(O)cc3F)cc(C(=O)N3C[C@@H](C)N(CC4CCOC4)C[C@@H]3C)c12` (stereo partly drawn) [Example 455, [(2S,5R)-2,5-Dimethyl-4-(tetra-hydro-furan-3-ylmethyl)-piperazin-1-yl]-[6-(2-fluoro-4-hydroxy-phenyl)-3-methyl-1H-pyrazolo[3,4-b]pyridin-4-yl]-methanone], the inhibition at 1.14 µM is 92%.

Take `Cc1n[nH]c2nc(-c3ccc(O)cc3)cc(C(=O)N3C[C@@H](C)NC[C@@H]3c3ccccc3)c12` [Example 458, [6-(4-Hydroxy-phenyl)-3-methyl-1H-pyrazolo[3,4-b]pyridin-4-yl]-((2S,5R)-5-methyl-2-phenyl-piperazin-1-yl)-methanone]: the inhibition at 1.14 µM stood at 44%.

Regarding `Cc1n[nH]c2nc(-c3ccc(O)cc3)cc(C(=O)N3C[C@H](C)NC[C@H]3c3ccccc3)c12` [Example 459, [6-(4-Hydroxy-phenyl)-3-methyl-1H-pyrazolo[3,4-b]pyridin-4-yl]-((2R,5S)-5-methyl-2-phenyl-piperazin-1-yl)-methanone], the inhibition at 1.14 µM was determined as 95%.
